According to PubChem BioAssay AID330 (DTP/NCI, 2004):
Several values for one entry are separate records, joined by “and”; a condition that tells them apart may be missing. Equal values may be shown once. Toxic doses and inconclusive results are not listed.

System: P388 leukemia ip, CD2F1 mice, survival T/C
Assay: NCI In Vivo Anticancer Drug Screen. Data for tumor model P388 Leukemia (intraperitoneal) in CD2F1 (CDF1) mice
Conditions: endpoint: median survival time, higher = longer survival
Procedure, shortened: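 Mice carrying the transplanted tumor received test compound or vehicle. Survival was recorded in each group, and the value is the treated-group measurement divided by that of the vehicle-treated control group.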

[1] = dose: 25.0 mg/kg/injection, schedule: Q04DX003 (ip), vehicle: saline with Tween-80
[2] = dose: 100.0 mg/kg/injection, schedule: Q04DX003 (ip), vehicle: saline with Tween-80
[3] = dose: 50.0 mg/kg/injection, schedule: Q01DX009 (ip), vehicle: Klucel (hydroxypropylcellulose) (HPC)
[4] = dose: 100.0 mg/kg/injection, schedule: Q01DX009 (ip), vehicle: Klucel (hydroxypropylcellulose) (HPC)
[5] = dose: 50.0 mg/kg/injection, schedule: Q01DX009 (ip), vehicle: saline with Tween-80
[6] = dose: 100.0 mg/kg/injection, schedule: Q01DX009 (ip), vehicle: saline with Tween-80

**Q.** `CC1(C)N=C(N)N=C(N)N1c1ccc(CCc2ccc(S(=O)(=O)F)cc2)c(Cl)c1` was tested. Which T/C [1] did it give?
**A.** 118 % of control

**Q.** What about the T/C (dose: 33.0 mg/kg/injection, schedule: Q04DX003 (ip), vehicle: saline sonified) of the same compound?
**A.** 118 % of control

**Q.** What about the T/C (dose: 50.0 mg/kg/injection, schedule: Q04DX003 (ip), vehicle: saline sonified) of the same compound?
**A.** 118 % of control

**Q.** And the T/C [2]?
**A.** 113 % of control

**Q.** With `CC(N)C(=O)OCN1C(=O)C2C3C=CC(C2C1=O)C1C2C(=O)N(COC(=O)C(C)N)C(=O)C2C31` (stereo not drawn) as the compound, how does the T/C (dose: 25.0 mg/kg/injection, schedule: Q01DX009 (ip), vehicle: water) read?
**A.** 109 % of control and 112 % of control

**Q.** And the T/C (dose: 50.0 mg/kg/injection, schedule: Q01DX009 (ip), vehicle: water)?
**A.** 108 % of control

**Q.** And the T/C (dose: 100.0 mg/kg/injection, schedule: Q01DX009 (ip), vehicle: water)?
**A.** 178 % of control and 193 % of control

**Q.** How did the T/C (dose: 60.0 mg/kg/injection, schedule: Q01DX005 (ip), vehicle: saline with Tween-80) turn out when `c1ccc(OCc2cn[nH]n2)cc1` was run?
**A.** 100 % of control

**Q.** What about the T/C (dose: 120.0 mg/kg/injection, schedule: Q01DX005 (ip), vehicle: saline with Tween-80) of the same compound?
**A.** 103 % of control

**Q.** What about the T/C (dose: 240.0 mg/kg/injection, schedule: Q01DX005 (ip), vehicle: saline with Tween-80) of the same compound?
**A.** 100 % of control

**Q.** How did the T/C (dose: 12.5 mg/kg/injection, schedule: Q01DX009 (ip), vehicle: Klucel (hydroxypropylcellulose) (HPC)) turn out when `O=S(=O)(OCC#CCOS(=O)(=O)c1ccc(Cl)c(Cl)c1)c1ccc(Cl)c(Cl)c1` was run?
**A.** 95 % of control

**Q.** And the T/C (dose: 25.0 mg/kg/injection, schedule: Q01DX009 (ip), vehicle: Klucel (hydroxypropylcellulose) (HPC))?
**A.** 92 % of control

**Q.** What about the T/C [3] of the same compound?
**A.** 91 % of control

**Q.** And the T/C [4]?
**A.** 92 % of control

**Q.** `CN1NC(C)(c2ccccn2)SC1=S` (stereo not drawn) was tested. Which T/C [5] did it give?
**A.** 98 % of control

**Q.** What about the T/C [6] of the same compound?
**A.** 91 % of control

**Q.** And the T/C (dose: 200.0 mg/kg/injection, schedule: Q01DX009 (ip), vehicle: saline with Tween-80)?
**A.** 90 % of control

**Q.** Which results are given for `CCOC(=O)/C=C(/Nc1cccc(OC)c1)c1ccccc1`?
**A.** T/C (dose: 25.0 mg/kg/injection, schedule: Q01DX009 (ip), vehicle: other): 97 % of control; T/C (dose: 50.0 mg/kg/injection, schedule: Q01DX009 (ip), vehicle: other): 103 % of control; T/C (dose: 100.0 mg/kg/injection, schedule: Q01DX009 (ip), vehicle: other): 98 % of control; T/C (dose: 200.0 mg/kg/injection, schedule: Q01DX009 (ip), vehicle: other): 91 % of control; T/C (dose: 400.0 mg/kg/injection, schedule: Q01DX009 (ip), vehicle: other): 105 % of control

**Q.** Which results are given for `Cc1ccc(Oc2nc(=O)c3c(o2)CC(C)(C)C3)cc1`?
**A.** T/C (dose: 12.5 mg/kg/injection, schedule: Q01DX009 (ip), vehicle: saline with Tween-80): 106 % of control; T/C (dose: 25.0 mg/kg/injection, schedule: Q01DX009 (ip), vehicle: saline with Tween-80): 106 % of control and 112 % of control; T/C [5]: 103 % of control and 106 % of control and 114 % of control; T/C [6]: 120 % of control and 96 % of control

**Q.** Which T/C [3] does the source give for `O=CNc1ccc(Cl)cc1C(=O)c1ccccc1` here?
**A.** 108 % of control

**Q.** What about the T/C [4] of the same compound?
**A.** 100 % of control

**Q.** And the T/C (dose: 200.0 mg/kg/injection, schedule: Q01DX009 (ip), vehicle: Klucel (hydroxypropylcellulose) (HPC))?
**A.** 95 % of control

**Q.** For `CCCCCCCN(CCCCCCC)CC(O)c1c(Br)c2cc(Br)ccc2c2ccc(Br)cc12` (stereo not drawn), which T/C (dose: 1.25 mg/kg/injection, schedule: Q01DX009 (ip), vehicle: saline with Tween-80) is on record?
**A.** 105 % of control

**Q.** And the T/C (dose: 2.5 mg/kg/injection, schedule: Q01DX009 (ip), vehicle: saline with Tween-80)?
**A.** 106 % of control

**Q.** And the T/C (dose: 5.0 mg/kg/injection, schedule: Q01DX009 (ip), vehicle: saline with Tween-80)?
**A.** 100 % of control

**Q.** How did the T/C (dose: 60.0 mg/kg/injection, schedule: Q01DX005 (ip), vehicle: Klucel (hydroxypropylcellulose) (HPC)) turn out when `COc1ccc(C(=O)CCC2(C)OCCO2)cc1OC` was run?
**A.** 101 % of control

**Q.** And the T/C (dose: 120.0 mg/kg/injection, schedule: Q01DX005 (ip), vehicle: Klucel (hydroxypropylcellulose) (HPC))?
**A.** 108 % of control

**Q.** And the T/C (dose: 240.0 mg/kg/injection, schedule: Q01DX005 (ip), vehicle: Klucel (hydroxypropylcellulose) (HPC))?
**A.** 106 % of control

**Q.** Which results are given for `O=c1cc(-c2ccccc2)[nH]c(=O)[nH]1`?
**A.** T/C [1]: 99 % of control; T/C (dose: 50.0 mg/kg/injection, schedule: Q04DX003 (ip), vehicle: saline with Tween-80): 101 % of control; T/C [2]: 107 % of control

**Q.** `COC(=O)c1c(-c2ccc3c(c2)OCO3)cn(C)c1C` was tested. Which T/C (dose: 50.0 mg/kg/injection, schedule: Q01DX005 (ip), vehicle: saline with Tween-80) did it give?
**A.** 97 % of control

**Q.** And the T/C (dose: 100.0 mg/kg/injection, schedule: Q01DX005 (ip), vehicle: saline with Tween-80)?
**A.** 91 % of control

**Q.** What about the T/C (dose: 200.0 mg/kg/injection, schedule: Q01DX005 (ip), vehicle: saline with Tween-80) of the same compound?
**A.** 87 % of control

**Q.** For `c1ccc(CCC(Cc2cccnc2)c2ccccn2)nc1` (stereo not drawn), which T/C (dose: 100.0 mg/kg/injection, schedule: Q04DX002 (ip), vehicle: saline) is on record?
**A.** 95 % of control

**Q.** And the T/C (dose: 200.0 mg/kg/injection, schedule: Q04DX002 (ip), vehicle: saline)?
**A.** 104 % of control
